Results on 11 compounds are retold here after ChEMBL document CHEMBL1201862, “PubChem BioAssay data set” (2004).

Each structure is given as a SMILES string.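 A five-concentration, 48-hour dose response in 96-well plates underlies each endpoint, interpolated linearly between surrounding concentrations. GI50 marks 50% less growth.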 Calls of active or inactive are those of the source. Cut-off read from the data, not from the text of the source: active = GI50 up to about 1.1 µM and inactive = higher.

Among the test systems are HCC 2998; SNB-75; CAKI-1; NCI-H226; SF-539; MDA-MB-435; NCI/ADR-RES; ACHN; T47D; EKVX; COLO 205; UO-31; M14; NCI-H522; NCI-H23; BT-549; HCT-116; OVCAR-8; LOX IMVI; HOP-92.
Holding throughout (assay): NCI-60 cell line screen, 48 h

Consider `CCOC(=O)CCC(NC(=O)Cc1ccc(Nc2nc3ccccc3nc2-c2cccs2)cc1)C(=O)OCC` (stereo not drawn), for which the GI50 in the assay on HCC 2998 was > 100 µM (inactive); in the assay on SNB-75, 18.1 µM (inactive); with CAKI-1, > 100 µM (inactive); with NCI-H226 it was > 100 µM (inactive); in the assay on SF-539, 24.9 µM (inactive); with MDA-MB-435 it was 38.1 µM (inactive). Moreover, the GI50 in the assay on NCI/ADR-RES is 61.8 µM (inactive); with ACHN, > 100 µM (inactive); in the assay with T47D, 10.9 µM (inactive); in the assay on EKVX, 53.7 µM (inactive); in the assay on COLO 205, > 100 µM (inactive); in the assay on UO-31, > 100 µM (inactive). Also, the GI50 with M14 was > 100 µM (inactive); in the assay on NCI-H522 it was 32 µM (inactive); in the assay on NCI-H23 it was 30.1 µM (inactive); in the assay on BT-549, > 100 µM (inactive); with HCT-116, > 100 µM (inactive).
In the case of `Cc1cc(S(=O)(=O)n2ccnc2O)c(SCCCN(C)C)cc1Cl`, the GI50 in the assay with HCC 2998, in the assay with CAKI-1, in the assay on NCI-H226, in the assay on SF-539, with MDA-MB-435 and with NCI/ADR-RES was > 100 µM (inactive) each time. Also, the GI50 in the assay on ACHN, in the assay on T47D, with EKVX, with COLO 205, in the assay on UO-31 and in the assay on M14 was > 100 µM (inactive) in each case. In addition, the GI50 with OVCAR-8, in the assay with NCI-H522, with NCI-H23, in the assay with BT-549, in the assay on LOX IMVI and in the assay with HCT-116 was > 100 µM (inactive) in each case.
For `CC1(C)CC2=NO[Se]3=C2C(=NO3)C1`, the GI50 was 5.19 µM (inactive) in the assay on HCC 2998; 2.68 µM (inactive) in the assay on SNB-75; 3.65 µM (inactive) in the assay on CAKI-1; 3.76 µM (inactive) in the assay on NCI-H226; 2.15 µM (inactive) in the assay on SF-539; 3.43 µM (inactive) with MDA-MB-435. The GI50 with ACHN is 1.72 µM (inactive); in the assay on T47D, 6.07 µM (inactive); in the assay with EKVX it was 2.8 µM (inactive); in the assay on HOP-92 it was 2.63 µM (inactive); in the assay with COLO 205 it was 2.07 µM (inactive); with UO-31 it was 2.98 µM (inactive). Besides, the GI50 in the assay with M14 was 1.99 µM (inactive); in the assay on OVCAR-8, 2.38 µM (inactive); in the assay with NCI-H522, 1.9 µM (inactive); in the assay with NCI-H23, 2.15 µM (inactive); with BT-549, 1.47 µM (inactive); with LOX IMVI it was 1.6 µM (inactive). Moreover, the GI50 with HCT-116 is 0.485 µM (active).
With `CC(=O)Nc1ccc2nc(N)n[n+]([O-])c2c1`, the GI50 with SNB-75 was 41.4 µM (inactive); with CAKI-1, > 100 µM (inactive); in the assay with NCI-H226, > 100 µM (inactive); with SF-539 it was > 100 µM (inactive); in the assay with MDA-MB-435, > 100 µM (inactive); in the assay with NCI/ADR-RES, > 100 µM (inactive). Besides, the GI50 in the assay on ACHN is > 100 µM (inactive); in the assay on T47D it was 79.8 µM (inactive); in the assay with EKVX it was > 100 µM (inactive); in the assay on COLO 205 it was > 100 µM (inactive); in the assay with UO-31 it was > 100 µM (inactive); in the assay with M14, > 100 µM (inactive). The GI50 in the assay on OVCAR-8, with NCI-H522, with NCI-H23, with BT-549, in the assay on LOX IMVI and in the assay on HCT-116 was > 100 µM (inactive) each time.
For the compound `O=C(Nn1c(-c2ccccc2)nc2ccccc2c1=O)c1cccc([N+](=O)[O-])c1`, the GI50 in the assay with HCC 2998 was > 100 µM (inactive); with SNB-75, > 100 µM (inactive); in the assay with NCI-H226 it was 52.8 µM (inactive); with SF-539, > 100 µM (inactive); in the assay on MDA-MB-435, > 100 µM (inactive); in the assay with ACHN it was 86.7 µM (inactive). Also, the GI50 with T47D is < 0.01 µM (active); in the assay on EKVX it was 57.9 µM (inactive); with HOP-92, 35.2 µM (inactive); in the assay with COLO 205 it was 54.3 µM (inactive); with UO-31 it was 39.3 µM (inactive); with M14 it was > 100 µM (inactive). The GI50 in the assay with OVCAR-8 was > 100 µM (inactive); with NCI-H522, 67 µM (inactive); with NCI-H23, 57.1 µM (inactive); in the assay on BT-549 it was 32.3 µM (inactive); in the assay with LOX IMVI it was > 100 µM (inactive); in the assay with HCT-116, > 100 µM (inactive).
With `CC1(C)CC(=O)C2=C(C1)NC(=S)C(C#N)C2c1ccccc1` (stereo not drawn), the GI50 in the assay on HCC 2998, with SNB-75, with CAKI-1, in the assay with NCI-H226, with SF-539 and with MDA-MB-435 was > 100 µM (inactive) throughout. Also, the GI50 in the assay with NCI/ADR-RES, with ACHN, in the assay with EKVX, with HOP-92, in the assay with COLO 205 and in the assay on UO-31 was > 100 µM (inactive) in each case. In addition, the GI50 in the assay on M14, in the assay on OVCAR-8, in the assay on NCI-H522, in the assay on NCI-H23, in the assay with BT-549 and in the assay with LOX IMVI was > 100 µM (inactive) each time. Further, in the assay with HCT-116, the GI50 was > 100 µM (inactive).
Regarding `CCOC(=O)Cc1c(C(=O)OCC)[n+]([O-])c2cc(Cl)c(Cl)cc2[n+]1[O-]`, the GI50 in the assay on HCC 2998 is 1.99 µM (inactive); in the assay with SNB-75 it was 1.53 µM (inactive); with CAKI-1, 2.97 µM (inactive); in the assay with SF-539, 2.08 µM (inactive); with MDA-MB-435 it was 2.77 µM (inactive); with NCI/ADR-RES, 2.78 µM (inactive). The GI50 in the assay on ACHN is 1.76 µM (inactive); with T47D, 0.982 µM (active); with EKVX it was 3.37 µM (inactive); with COLO 205, 1.73 µM (inactive); with UO-31 it was 1.77 µM (inactive); in the assay with M14 it was 2.29 µM (inactive). Besides, the GI50 in the assay on OVCAR-8 is 2.34 µM (inactive); in the assay with NCI-H522 it was 1.84 µM (inactive); with NCI-H23 it was 2.18 µM (inactive); with BT-549 it was 2.45 µM (inactive); in the assay with LOX IMVI, 2 µM (inactive); in the assay on HCT-116 it was 1.77 µM (inactive).
`O=C(Cn1c2c(c3ccccc31)CCCC2)N1CCCCC1`: the GI50 is > 100 µM (inactive) in the assay with HCC 2998; > 100 µM (inactive) in the assay with CAKI-1; 86.7 µM (inactive) with SF-539; > 100 µM (inactive) in the assay with MDA-MB-435; > 100 µM (inactive) with NCI/ADR-RES; > 100 µM (inactive) in the assay with ACHN. The GI50 in the assay with EKVX, with HOP-92, in the assay with COLO 205, in the assay with UO-31, in the assay with M14 and in the assay on OVCAR-8 was > 100 µM (inactive) throughout. Also, the GI50 in the assay on NCI-H23, in the assay with BT-549, with LOX IMVI and in the assay on HCT-116 was > 100 µM (inactive) throughout.
As for `[O-][S+](Nc1ccccc1)c1ccc(-c2ccccc2)cc1` (stereo not drawn), the GI50 with HCC 2998, with NCI-H226, in the assay with SF-539, in the assay on MDA-MB-435, with NCI/ADR-RES and in the assay on ACHN was > 100 µM (inactive) throughout. The GI50 in the assay with T47D is 11.5 µM (inactive); in the assay on EKVX, > 100 µM (inactive); in the assay on COLO 205 it was 72.3 µM (inactive); in the assay on UO-31, > 100 µM (inactive); in the assay on OVCAR-8, 45.8 µM (inactive); in the assay with NCI-H522, > 100 µM (inactive). In addition, the GI50 in the assay on NCI-H23 is > 100 µM (inactive); with BT-549, 8.57 µM (inactive); in the assay on LOX IMVI it was 28.5 µM (inactive); in the assay with HCT-116 it was > 100 µM (inactive).
In the case of `Nc1ncnc2c1ncn2Cc1cccc(CCl)c1`, the GI50 in the assay on SNB-75 is 30.1 µM (inactive); in the assay on CAKI-1 it was 18.8 µM (inactive); in the assay with NCI-H226 it was 16 µM (inactive); with SF-539, 14.8 µM (inactive); in the assay with MDA-MB-435, 19.1 µM (inactive); with NCI/ADR-RES it was 18.5 µM (inactive). For the same compound, the GI50 is 14.8 µM (inactive) in the assay on ACHN; 19.3 µM (inactive) in the assay on EKVX; 19.7 µM (inactive) with HOP-92; 16.5 µM (inactive) in the assay with UO-31; 14.1 µM (inactive) in the assay on M14; 16.1 µM (inactive) with OVCAR-8. In addition, the GI50 in the assay with NCI-H522 was 15.1 µM (inactive); with NCI-H23, 12.6 µM (inactive); in the assay with BT-549 it was 12.8 µM (inactive); in the assay on LOX IMVI, 20.1 µM (inactive); in the assay with HCT-116 it was 10.4 µM (inactive).
Take `O=C(c1cccs1)N(C(=O)N1CCCCC1)c1ccccc1`: the GI50 in the assay on SNB-75 is 3.28 µM (inactive); with CAKI-1, > 100 µM (inactive); with NCI-H226 it was > 100 µM (inactive); in the assay with SF-539, > 100 µM (inactive); with MDA-MB-435 it was > 100 µM (inactive); with NCI/ADR-RES, > 100 µM (inactive). The GI50 in the assay on ACHN was > 100 µM (inactive); in the assay on T47D, > 100 µM (inactive); in the assay with EKVX it was 14.8 µM (inactive); in the assay on COLO 205 it was > 100 µM (inactive); in the assay on UO-31, 62.8 µM (inactive); in the assay on M14 it was > 100 µM (inactive). In addition, the GI50 with OVCAR-8, with NCI-H23, in the assay with BT-549, in the assay on LOX IMVI and in the assay with HCT-116 was > 100 µM (inactive) in each case.
